ChEMBL document CHEMBL5705899 (Biochem J, 2014)
Activity calls are given as the source filed them. The calls are words filed in the database; no cut-off is given here.

Key:
[1] = target: Protein kinase C alpha type (Homo sapiens) (UniProt P17252); assay: (§1) Inhibition of recombinant human N-terminal His6-tagged PKCalpha (1 to 672 residues) expressed in baculovirus infected Sf21 cells assessed as remaining activity at 1 uM using Histone H1 as substrate incubated for 30 mins in presence of [gamma-33P]ATP by filter binding method relative to control
[2] = target: Serine/threonine-protein kinase MARK1 (Homo sapiens) (UniProt Q9P0L2); assay: as §1, with “MARK1 (2” for “PKCalpha (1”, “795” for “672”, “KKKVSRSGLYRSPSMPENLNRPR” for “Histone H1”
[3] = target: Serine/threonine-protein kinase pim-1 (Homo sapiens) (UniProt P11309); assay: Inhibition of recombinant human N-terminal His6-tagged PIM1 (2 to 313 residues) expressed in baculovirus infected Sf21 cells assessed as remaining activity at 1 uM using RSRHSSYPAGT as substrate incubated for 30 mins in presence of [gamma-33P]ATP by filter binding method relative to control
[4] = target: Serine/threonine-protein kinase tousled-like 1 (Homo sapiens) (UniProt Q9UKI8); assay: Inhibition of recombinant human N-terminal GST-tagged TLK1 (1 to 766 residues) expressed in Escherichia coli assessed as remaining activity at 1 uM using MBP as substrate incubated for 30 mins in presence of [gamma-33P]ATP by filter binding method relative to control
[5] = target: Myosin light chain kinase, smooth muscle (Homo sapiens) (UniProt Q15746); assay: Inhibition of recombinant human N-terminal GST-tagged SmMLCK (475 to 838 residues) expressed in Escherichia coli assessed as remaining activity at 1 uM using KKRPQRATSNVFA as substrate incubated for 30 mins in presence of [gamma-33P]ATP by filter binding method relative to control
[6] = target: Serine/threonine-protein kinase PAK 6 (Homo sapiens) (UniProt Q9NQU5); assay: Inhibition of recombinant human N-terminal GST-tagged PAK6 (2 to 681 residues) expressed in Escherichia coli assessed as remaining activity at 1 uM using RRRLSFAEPG as substrate incubated for 30 mins in presence of [gamma-33P]ATP by filter binding method relative to control
[7] = target: Protein-tyrosine kinase 6 (Homo sapiens) (UniProt Q13882); assay: Inhibition of human BRK at 1 uM using polyEy as substrate in presence of 33P-ATP by ProQinase assay
[8] = target: Tyrosine-protein kinase FRK (Homo sapiens) (UniProt P42685); assay: Inhibition of human FRK at 1 uM using PolyEY as substrate in presence of 33P-ATP by ProQinase assay
[9] = target: Tyrosine-protein kinase Fyn (Homo sapiens) (UniProt P06241); assay: Inhibition of human FYN at 1 uM using polyEY as substrate in presence of 33P-ATP by ProQinase assay
[10] = target: SRSF protein kinase 3 (Homo sapiens) (UniProt Q9UPE1); assay: Inhibition of human STK23 at 1 uM using RBER-CHKtide as substrate in presence of 33P-ATP by ProQinase assay
[11] = target: Ephrin type-A receptor 4 (Homo sapiens) (UniProt P54764); assay: Inhibition of human EPHA4 at 1 uM using polyEY as substrate in presence of 33P-ATP by ProQinase assay
[12] = target: Cyclin-Y/Cyclin-dependent kinase 16 (Homo sapiens) (UniProt Q00536+Q8ND76); assay: Inhibition of human PCTAIRE1/CyclinY at 1 uM using RBER-GSK3 as substrate in presence of 33P-ATP by ProQinase assay; format: protein-complex assay
[13] = target: NUAK family SNF1-like kinase 2 (Homo sapiens) (UniProt Q9H093); assay: Inhibition of human SNARK at 1 uM using histone H2B as substrate in presence of 33P-ATP by ProQinase assay
[14] = target: Maternal embryonic leucine zipper kinase (Homo sapiens) (UniProt Q14680); assay: Inhibition of human MELK at 1 uM using RBER-CHKtide as substrate in presence of 33P-ATP by ProQinase assay
[15] = target: Serine/threonine-protein kinase mTOR (Homo sapiens) (UniProt P42345); assay: Inhibition of human mTOR at 1 uM using casein as substrate in presence of 33P-ATP by ProQinase assay
[16] = target: Homeodomain-interacting protein kinase 3 (Homo sapiens) (UniProt Q9H422); assay: Inhibition of human HIPK3 at 1 uM using RBER-CHKtide as substrate in presence of 33P-ATP by ProQinase assay
[17] = target: Serine/threonine-protein kinase MARK1 (Homo sapiens) (UniProt Q9P0L2); assay: Inhibition of human MARK1 at 1 uM using RBER-CHKtide as substrate in presence of 33P-ATP by ProQinase assay
[18] = target: Serine/threonine-protein kinase PAK 3 (Homo sapiens) (UniProt O75914); assay: Inhibition of human PAK3 at 1 uM using bio-4xCHKT as substrate in presence of 33P-ATP by ProQinase assay
[19] = target: Wee1-like protein kinase (Homo sapiens) (UniProt P30291); assay: Inhibition of human WEE1 at 1 uM using poly(Ala,Glu,Lys,Tyr) as substrate in presence of 33P-ATP by ProQinase assay
[20] = target: Mitogen-activated protein kinase kinase kinase 3 (Homo sapiens) (UniProt Q99759); assay: Inhibition of human MEKK3 at 1 uM using casein as substrate in presence of 33P-ATP by ProQinase assay
[21] = target: Testis-specific serine/threonine-protein kinase 1 (Homo sapiens) (UniProt Q9BXA7); assay: Inhibition of human TSSK1 at 1 uM using RBER-CHKtide as substrate in presence of 33P-ATP by ProQinase assay
[22] = target: Homeodomain-interacting protein kinase 4 (Homo sapiens) (UniProt Q8NE63); assay: Inhibition of human HIPK4 at 1 uM using RBER-IRStide as substrate in presence of 33P-ATP by ProQinase assay
[23] = target: Choline kinase alpha (Homo sapiens) (UniProt P35790); assay: Inhibition of recombinant human N-terminal GST-tagged CHKalpha (1 to 457 residues) expressed in Escherichia coli at 1 uM using choline chloride as substrate incubated for 40 mins by ADP-Glo assay
[24] = target: Diacylglycerol kinase gamma (Homo sapiens) (UniProt P49619); assay: Inhibition of recombinant human N-terminal His6-tagged DGKgamma (1 to 752 residues) expressed in baculovirus expression system at 1 uM using diacyl-glycerol as substrate incubated for 40 mins by ADP-Glo assay

CC(C)(O)CNc1ncc(-c2ccnc(Nc3ccnc(Cl)c3)n2)c(CC2CC2)n1
Activity [1]: 119%
Activity [2]: 114%
Activity [3]: 108%
Activity [4]: 100%
Activity [5]: 97%
Activity [6]: 97%
inhibition [7]: inactive
inhibition [8]: inactive
inhibition [9]: inactive
inhibition [10]: inactive
inhibition [11]: inactive
inhibition [12]: inactive
inhibition [13]: inactive
inhibition [14]: inactive
inhibition [15]: inactive
inhibition [16]: inactive
inhibition [17]: inactive
inhibition [18]: inactive
inhibition [19]: inactive
inhibition [20]: inactive
inhibition [21]: inactive
inhibition [22]: inactive
inhibition [23]: inactive
inhibition [24]: inactive
